One may read the IC50 as the concentration at which inhibition is half-maximal.

≈ marks a conversion by molar mass, not a printed value. Where two headings read alike, the source gives them in different places. Positions of bridges follow the written chain, without caps; N, C: chain ends. Non-standard residues stand in square brackets, D forms with d. Residues, ends and D or L forms follow the SMILES beside them. hArg = N=C(N)NCCCC[C@H](N)C(=O)O; Mpa = O=C(O)CCS

The record followed here is patent US11202854B2, “Disintegrin variants and uses thereof” (National Taiwan University, priority 2017, dated 2021).

The subject of data set [1] is platelets.
Experimental: Disintegrin and its variants of Example 1 were subject to test for their abilities in suppressing platelet aggregation mediated by αIIbβ3. Briefly, venous blood samples from healthy donors were collected and platelet-rich plasma was prepared therefrom. The platelet-rich plasma was then incubated with the stimulant (e.g., collagen or AP2) that triggered plug formation, then with the disintegrin and/or its variants of Example 1.
Data set [2] concerns platelets. The data set is described as follows: Ex vivo collagen-induced platelet aggregation response. Format: in vivo, mouse. Particulars: FIG. 1 panels B and C.
The nature of data set [3]: Tail bleeding time. Particulars: 0.18 mg/Kg, mice. Format: in vivo, mouse. The method, then:
Male ICR mice weighing 20-30 g were used in all studies. Animals were allowed to access food and water ad libitum under controlled temperature (20±1° C.) and humidity (55%±5%). The animal experimental protocols were approved by the Laboratory Animal Use Committee of College of Medicine, National Taiwan University.
Male ICR mice were intravenously injected through a lateral tail vein of the mouse with agents. A sharp cut of 2 mm segment from the distal tail was made 5 min after injection. The amputated tail was immediately placed into a tube filled with isotonic saline at 37° C. Bleeding time was recorded for a maximum of 10 min and the end point was the arrest of bleeding.

For data set [4], the system named is platelets. The data set is described as follows: Platelet aggregation (inducer not stated). Format: cell-based, human. Particulars: Table 4; inducer not given. As for the experimental part: (§1) Blood was collected from healthy volunteers who had not taken any medication for two weeks prior to the study. Informed consents were obtained from each and every participants, and the study was approved by the institutional review board of National Taiwan University Hospital. Preparation of human PS was performed in accordance with procedures described previously (Huang et al., Experimental haemtology. 2008 36(12), 1704-1713).
(§2) Disintegrin and its variants of Example 1 were subject to test for their abilities in suppressing platelet aggregation mediated by αIIbβ3. Briefly, venous blood samples from healthy donors were collected and platelet-rich plasma was prepared therefrom. The platelet-rich plasma was then incubated with the stimulant (e.g., collagen or […]) that triggered plug formation, then with the disintegrin and/or its variants of Example 1.

Data set [5] has as its system platelets. The data set is described as follows: ADP-induced platelet aggregation in platelet-rich plasma. Format: cell-based, human. As for the experimental part:
as §1, §2

Data set [6] has as its system integrin αvβ3. Put plainly: Cell adhesion assay: CHO-αvβ3 cells to fibrinogen. Particulars: CHO-αvβ3 cells to immobilized fibrinogen. Format: cell-based. The method, then:
(§3) A cell adhesion assay was used to determine the inhibitory activity of Rho, TMV, and their variants and was conducted according to previously described protocols. 96-well microtiter plates (Costar; Corning) were coated with 100 μL PBS buffer containing 200 μg/mL fibrinogen or 50 μg/mL fibronectin, and incubated overnight at 4° C. Non-specific protein binding sites were blocked by incubating each well with 200 μL of heat-denatured 1% bovine serum albumin (BSA) (Calbiochem) at room temperature for 1.5 h. The heat-denatured BSA was discarded and each well was washed twice with 200 μL PBS.
(§4) Chinese hamster ovary (CHO) cells that expressed integrins αvβ3 (CHO-αvβ3) and αIIbβ3 (CHO-αIIbβ3) were kindly provided by Dr. Y. Takada (Scripps Research Institute) and maintained in Dulbecco's modified Eagle's medium (18, 27). Human erythroleukemia K562 cell was purchased from ATCC and cultured in Roswell Park Memorial Institute (RPMI)—1640 medium containing 10% fetal bovine serum (FBS). Harvested K562 cells were resuspended in RPMI-1640 medium containing 5% FBS. […]
(§5) The adhesions of CHO-αIIbβ3 cells to fibrinogen, CHO-αvβ3 cells to fibrinogen, and K562 cells to fibronectin were used to determine the inhibitory activities of tested protein to integrins αIIbβ3, αvβ3, and α5β1. […] The resulting absorbance was read at 600 nm and the readings were correlated with the number of adhering cells. […]

The target of data set [7] is T1, integrin αIIbβ3 (Homo sapiens, UniProt P05106+P08514).
T1 construct: host or cells: CHO (Chinese hamster ovary) cells
T1 sequence (P08514 32-887 limits assumed): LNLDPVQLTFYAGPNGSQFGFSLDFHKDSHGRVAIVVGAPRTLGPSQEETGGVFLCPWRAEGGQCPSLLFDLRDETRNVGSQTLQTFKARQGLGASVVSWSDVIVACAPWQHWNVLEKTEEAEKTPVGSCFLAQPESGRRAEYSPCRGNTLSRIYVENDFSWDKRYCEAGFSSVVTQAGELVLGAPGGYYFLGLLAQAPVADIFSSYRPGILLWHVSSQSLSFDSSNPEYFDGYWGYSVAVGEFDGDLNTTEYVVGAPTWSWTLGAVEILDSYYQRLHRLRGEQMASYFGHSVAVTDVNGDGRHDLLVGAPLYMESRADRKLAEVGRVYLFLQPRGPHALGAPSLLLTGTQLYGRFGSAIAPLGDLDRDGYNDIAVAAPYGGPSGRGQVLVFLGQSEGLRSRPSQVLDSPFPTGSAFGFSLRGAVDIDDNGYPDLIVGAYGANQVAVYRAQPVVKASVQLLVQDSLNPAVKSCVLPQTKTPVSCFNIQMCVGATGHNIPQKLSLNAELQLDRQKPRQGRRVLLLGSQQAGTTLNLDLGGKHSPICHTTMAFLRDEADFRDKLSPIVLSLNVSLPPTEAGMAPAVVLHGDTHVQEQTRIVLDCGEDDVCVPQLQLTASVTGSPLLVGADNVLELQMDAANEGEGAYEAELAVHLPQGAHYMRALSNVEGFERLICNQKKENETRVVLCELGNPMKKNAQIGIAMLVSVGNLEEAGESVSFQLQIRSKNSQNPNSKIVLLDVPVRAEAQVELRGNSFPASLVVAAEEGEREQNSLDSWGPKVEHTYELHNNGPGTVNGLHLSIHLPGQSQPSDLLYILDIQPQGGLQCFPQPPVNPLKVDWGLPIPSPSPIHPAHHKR
T1 sequence (P08514 891-1039 partner limits assumed): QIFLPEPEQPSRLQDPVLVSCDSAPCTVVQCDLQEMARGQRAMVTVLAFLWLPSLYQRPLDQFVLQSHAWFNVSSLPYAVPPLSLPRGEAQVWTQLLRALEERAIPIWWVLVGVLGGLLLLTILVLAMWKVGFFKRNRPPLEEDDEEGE
T1 sequence (P05106 27-788): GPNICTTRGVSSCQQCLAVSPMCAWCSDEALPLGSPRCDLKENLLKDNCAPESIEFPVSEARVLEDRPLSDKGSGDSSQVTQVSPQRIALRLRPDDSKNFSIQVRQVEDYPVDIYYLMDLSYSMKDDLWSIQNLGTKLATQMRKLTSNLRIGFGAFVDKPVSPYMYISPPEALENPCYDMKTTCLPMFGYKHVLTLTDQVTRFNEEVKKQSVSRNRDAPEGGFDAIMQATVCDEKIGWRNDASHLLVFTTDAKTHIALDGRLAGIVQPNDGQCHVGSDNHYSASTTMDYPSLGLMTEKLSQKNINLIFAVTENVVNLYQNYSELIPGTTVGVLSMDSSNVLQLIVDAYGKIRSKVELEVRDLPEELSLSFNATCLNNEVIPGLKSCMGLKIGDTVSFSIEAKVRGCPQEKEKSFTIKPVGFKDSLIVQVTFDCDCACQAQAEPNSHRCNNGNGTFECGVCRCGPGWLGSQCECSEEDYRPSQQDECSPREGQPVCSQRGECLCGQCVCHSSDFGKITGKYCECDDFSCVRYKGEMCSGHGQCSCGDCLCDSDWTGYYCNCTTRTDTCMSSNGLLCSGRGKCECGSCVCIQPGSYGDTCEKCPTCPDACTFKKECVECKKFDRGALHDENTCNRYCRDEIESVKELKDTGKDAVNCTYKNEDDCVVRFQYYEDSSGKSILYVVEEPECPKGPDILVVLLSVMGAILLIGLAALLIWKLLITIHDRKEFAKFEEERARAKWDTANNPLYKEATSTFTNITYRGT
The data set is described as follows: Cell adhesion assay: CHO-αIIbβ3 cells to fibrinogen. The data set is classed as cell-based. Particulars: Table 3. The method, then:
as §3, §4, §5

With `N=C(N)NCCCC[C@@H]1NC(=O)CCSSC[C@@H](C(N)=O)NC(=O)[C@@H]2CCCN2C(=O)[C@H](Cc2c[nH]c3ccccc23)NC(=O)[C@H](CC(=O)O)NC(=O)CNC1=O` [eptifibatide] ([Mpa][hArg]GDWPC-NH2; disulfide 1-7), in data set [1] (in vitro, FIG. 1 panel A), the “IC50 on collagen-induced platelet aggregation” value came out at 0.75 µg/mL (≈ 0.901 µM). Besides, the “Collagen-induced platelet aggregation response” value in data set [2] is “significantly suppressed”. The Tail bleeding time result in data set [3] was “significantly prolong”.

Rhodostomin: the half-inhibitory concentration (IC50) in data set [4] was determined as 83.2 ± 10.4 nM; in data set [1] (read-out: Platelet aggregation IC50 (nM), Collagen, collagen-induced), 66.8 nM; in data set [5], 81.5 nM; in data set [6], 13 ± 5.7 nM; in data set [7], 59.5 nM.
